We go through 14 molecules from patent publication US5736523A, “Antineoplastic heteronapthoquinones” (Biochem Pharma Inc., priority 1995, dated 1998).

Like-named read-outs stand apart in the source and are kept apart here.

What all share (format): cell-based, human
The subject of assay [1] is HT 29 (Colon adenocarcinoma). In words: In vitro cytotoxicity, microculture tetrazolium (MTT) assay, HT 29. The method, then:
(§1) In Vitro Cytotoxicity--Microculture Tetrazolium Assay
(§2) The microculture tetrazolium assay was used to test in vitro cytotoxicity. This assay is described in Plumb, J. A. et al., 1989 Cancer Research 49, 4435-4440, which is herein incorporated by reference. The cytotoxicity of compounds towards tumor cells is measured in vitro using the assay. This assay method is based upon the ability of live, but not dead cells to reduce the yellow water soluble dye 3-(4;5-dimethylthiazol-2-yl)-2,5-diphenyltetrazolium bromide (MTT) to its water insoluble purple formazan product.
(§3) Human Tumor Cell lines, used were:
HT 29 (Colon adenocarcinoma) ATCC catalog #HTB-38.
(§4) The cells were maintained in exponential growth in culture in minimal essential media (MEM) supplemented with non-essential amino acids, and containing 15% (v/v) fetal bovine serum, 5 mM L-glutamine, 1 mM sodium pyruvate, and 0.1 U/ml insulin. All cell lines were grown at 37° C. in an atmosphere of 5% CO2 in air.
(§5) Test compounds: 20 mM in DMSO and diluted to a final concentration of 200 μM in culture medium before use.
(§6) The following is the generic description of the assay method. It should be noted that although the conditions described work well with the cells listed above, the initial plating density and the MTT concentration used should be verified for each new cell line used to test compounds.
(§7) For each assay, doxorubicin is included as an inter-assay standard. This allows us to monitor the behaviour of the assay in general, and in particular, to check that the SKVLB line has maintained its resistant phenotype.
(§8) The plate layout is done in the following manner: The assays are carried out in 96-well (8 well×12 well) microtiter plates. Serial dilutions of the compound are tested along the length of the plate. A 1:3 serial dilution of compound in culture medium covers a concentration range from 100 μM to 1.7 nM. Each concentration of compound is tested in quadruplet, allowing two compounds to be tested per plate. Wells containing no cells (blank) and cells with no test compound (control) are included on each plate.
(§9) Cells are plated out in 100 μl of culture medium in the microtiter plates at a density of around 1,500-4,000 cells per well. The plates are incubated overnight to allow the cells to become adherent after which the test compound is added (100 μl of appropriate dilution per well). The cells are incubated with test compound at 37° C. for 48 h after which the compound is replaced with fresh medium. After a further 48 h incubation at 37° C., 50 μl of MTT solution (2 mg/ml) is added to each well. The plates are incubated in the dark for 4 h at 37° C. after which the medium is removed. The MTT formazan product is extracted from the cells by the addition of 200 μl DMSO followed by 50 μl of Sorensen's buffer. The plates are shaken briefly and the absorbance at 570 nm is read using a Molecular Devices UV max plate reader. Curves are fit to the MTT assay data using a four parameter logistic equation, and the data are normalized to fit a 0% to 100% survival scale.

Assay [2] has as its system T47D (Ductal carcinoma of breast). In words: In vitro cytotoxicity, microculture tetrazolium (MTT) assay, T47D. On the procedure:
as §1, §2, §3
T47D (Ductal carcinoma of breast)--ATCC catalog #HTB-133.
as §4, §5, §6, §7, §8, §9

Assay [3] concerns SKVLB (Ovarian; multidrug resistant). Briefly: In vitro cytotoxicity, microculture tetrazolium (MTT) assay, SKVLB. As to conditions: for IC50: SKVLB, multidrug resistant, read-out: IC50; for VLB/OV3: ratio SKVLB / SKOV3. The method, boiled down: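 Multidrug-resistant ovarian SKVLB cells exposed 48 h at 37 °C to 1:3 serial dilutions (100 μM–1.7 nM), then 48 h in fresh medium. MTT reduction read at 570 nm after DMSO extraction; four-parameter logistic fit normalized to 0–100% survival.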

For assay [4], the system named is SKOV3 (Ovarian adenocarcinoma). In words: In vitro cytotoxicity, microculture tetrazolium (MTT) assay, SKOV3. The method, then:
as §1, §2, §3
SKOV3 (Ovarian adenocarcinoma)--provided by Dr. V. Ling,
as §4, §5, §6, §7, §8, §9

The next assay concerns Lox (Melanoma). Briefly: In vitro cytotoxicity, microculture tetrazolium (MTT) assay, Lox. The method, then: as §1, §2, §3
Lox (Melanoma)--Southern Research Institute.
as §4, §5, §6, §7, §8, §9

Setting [5] is: Homo sapiens, HT-29, HT29, read-out: IC50.
[6] abbreviates: Homo sapiens, SK-OV-3, SKOV3, read-out: IC50.

What is called IC50 is the concentration that inhibits the measured activity by half. On to `CC(=O)[C@@H]1CC2=C(C(=O)c3ccccc3C2=O)[C@H](OC2CCC(NC(=O)N(CCCl)N=O)CC2)O1` (mixture of isomers) [BCH2114, (1R,3S) and (1S,3R)-3-aceto-5,10-dioxo-1 (4-chloroethylnitrosoureido cyclohexyl-oxy)-3,4,5,10-tetrahydro-1H-naphtho-(2,3-c)-pyran], for which the IC50 in assay [1] (HT29, read-out: IC50) is 257 nM; in assay [2] (read-out: IC50), 655 nM; in assay [3], 2040 nM; in assay [4] (SKOV3, read-out: IC50), 472 nM; with Lox (Melanoma) (read-out: IC50), 373 nM. Moreover, in assay [3], the VLB/OV3 was determined as 4.32.

As for `CCC1CC2=C(C(=O)c3ccccc3C2=O)C(OC2CC(OC(C)=O)C(OC(C)=O)C(C)O2)O1` (mixture of isomers) [BCH1607, (1'S,1S,3S) and (1'S,1R,3R)-5,10-dioxo-3-ethyl-1-(2',3',4',6'-tetradeoxy-3',4'-diacetoxy-L-lyxohexo-pyranose)-3,4,5,10-tetrahydro-1H-naphtho [2,3-C] pyran], the half-maximal inhibitory concentration (IC50) in assay [1] (HT29, read-out: IC50) was 21600 nM; in assay [2] (read-out: IC50), 14700 nM; in assay [3] it was 19800 nM; in assay [4] (SKOV3, read-out: IC50), 7260 nM; in the assay with Lox (Melanoma) (read-out: IC50) it was 8970 nM. Also, the VLB/OV3 in assay [3] was determined as 2.73.

For the molecule “Methyl-(6-hydroxy-5,10-dioxo-3,4,5,10-tetrahydronaphtho-[2,3-c]-pyran-3-yl)ketone and methyl-(9-hydroxy-5,10-dioxo-3,4,5,10-tetrahydronaphtho-[2,3-c]-pyran-3-yl) ketone [BCH2062]”, the IC50 in assay [1] (HT29, read-out: IC50) was 1140 nM; in assay [2] (read-out: IC50), 776 nM; in assay [3] it was 842 nM; in assay [4] (SKOV3, read-out: IC50) it was 810 nM; in the assay with Lox (Melanoma) (read-out: IC50), 354 nM. The VLB/OV3 in assay [3] is on record as 1.04.

Regarding `CC(=O)C1CC2=C(C(=O)c3ccccc3C2=O)C(OC[C@@H]2CCCN2C(=O)OC(C)(C)C)O1` (mixture of isomers) [BCH2067, (1S,2'S,3R) and (1R,2'S,3S)-methyl-(1-[O-N-BOC-prolinol]-5,10-dioxo-3,4,5,10-tetrahydro-1H-naphtho [2,3-C]pyran-3-yl) ketone], the IC50 was 323 nM in assay [1] (HT29, read-out: IC50); 540 nM in assay [2] (read-out: IC50); 2240 nM in assay [3]; 1200 nM in assay [4] (SKOV3, read-out: IC50); 1100 nM in the assay with Lox (Melanoma) (read-out: IC50). Further, the VLB/OV3 in assay [3] is reported as 2.

Take `C=CCC1CC2=C(C(=O)c3ccccc3C2=O)C(OC2CC(NC(=O)C(F)(F)F)C(O)C(C)O2)O1` (stereo not drawn) [BCH1648]: the IC50 in assay [1] (HT29, read-out: IC50) stood at 309 nM; in assay [2] (read-out: IC50), 360 nM; in assay [3], 315 nM; in assay [4] (SKOV3, read-out: IC50), 51.9 nM; with Lox (Melanoma) (read-out: IC50), 138 nM. In assay [3], the VLB/OV3 came to 6.07.

With `CC(=O)C1CC2=C(C(=O)c3ccccc3C2=O)C(OC2CC(NC(=O)C(F)(F)F)C(O)C(C)O2)O1` (stereo not drawn) [BCH2144], the half-inhibitory concentration (IC50) worked out at 5930 nM in assay [1] (HT29, read-out: IC50); 7220 nM in assay [2] (read-out: IC50); 16100 nM in assay [3]; 21400 nM in assay [4] (SKOV3, read-out: IC50); 3280 nM in the assay with Lox (Melanoma) (read-out: IC50). For the same molecule, the VLB/OV3 in assay [3] was found to be 0.75.

`CC(NC(=O)C(F)(F)F)[C@H]1CC2=C(C(=O)c3ccccc3C2=O)[C@H](O[C@H]2C[C@H](O)[C@H](O)[C@H](C)O2)O1` (stereo partly drawn) [BCH2018, (1'S,1S,3R)-3-(trifluoroacetamidoethyl)-5,10-dioxo-1-(2',3',6'-trideoxy-3',4'-dihydroxy-L-lyxohexopyranose)-3,4,5,10-tetrahydro-1H-naphtho-[2,3-c]-pyran]: the IC50 in assay [1] (setting [5]) came out at 14200 nM; in assay [2] (Homo sapiens, read-out: IC50) it was 8560 nM; in assay [3] (Homo sapiens) it was 17700 nM; in assay [4] (setting [6]), 3110 nM; in the assay with Lox (Melanoma) (Homo sapiens, read-out: IC50) it was 2380 nM. In assay [3], the VLB/OV3 is on record as 5.69.

For `CC(=O)[C@H]1CC2=C(C(=O)c3ccccc3C2=O)[C@H](O[C@H]2C[C@H](NC(=O)C(F)(F)F)[C@H](OC(=O)CBr)[C@H](C)O2)O1` [BCH2105, (1'-S,1-S,3-R)-methyl-(1-[2',3',4',6' tetradeoxy-3'-trifluoroacetamido-4'-O-(2-bromo-acetyl)-L-lyxopyranose]-5,10-dioxo-3,4,5,10 tetrahydronaphtho-[2,3-c]pyran-3-yl) ketone], the IC50 in assay [1] (HT29, read-out: IC50) was 6.9 nM; in assay [2] (read-out: IC50), 19 nM; in assay [3], 370 nM; in assay [4] (SKOV3, read-out: IC50), 3 nM; in the assay on Lox (Melanoma) (read-out: IC50) it was 25 nM. In addition, the VLB/OV3 in assay [3] turned out to be 123.

In the case of `CC(=O)C1CC2=C(C(=O)c3ccccc3C2=O)C(O[C@H]2C[C@H](O)[C@H](O)[C@H](C)O2)O1` (mixture of isomers) [BCH2117, (1'S,1S,3R) and (1'S,1R,3S)-methyl-(1-[dideoxy-2',6'-dihydroxy-3',4'-L-lyxohexopyranose]-5,10-dioxo-3,4,5,10-tetrahydronaphtho-[2,3-c]-pyran-3-yl) ketone], the IC50 in assay [1] (HT29, read-out: IC50) was 30 nM; in assay [2] (read-out: IC50), 37.4 nM; in assay [3], 332 nM; in assay [4] (SKOV3, read-out: IC50), 9.5 nM; with Lox (Melanoma) (read-out: IC50), 73 nM. Besides, the VLB/OV3 in assay [3] was 35.13.

As for `COC1OC(C(=O)NCCCn2ccnc2)=CC2=C1C(=O)c1ccccc1C2=O` (stereo not drawn) [BCH2157, (3-N-hydrochloroimidazolylpropyl)-1-methoxy-5,10-dioxo-5,10-dihydro-1H-naphtho-[2,3-c]-pyran-3-carboxamide], the IC50 is 1230 nM in assay [1] (setting [5]); 233 nM in assay [2] (Homo sapiens, read-out: IC50); 3390 nM in assay [3] (Homo sapiens); 187 nM in assay [4] (setting [6]); 15.5 nM in the assay on Lox (Melanoma) (Homo sapiens, read-out: IC50). The VLB/OV3 in assay [3] was determined as 18.13.

On to “(1S,2'S,3R) and (1R,2'S,3S)-methyl-(1-[O-prolinol]-3,4,5,12-tetrahydronaphtho-[2,3-C] pyran-3-yl) ketone hydrochloride salt [BCH1658]”, for which the IC50 amounted to 661 nM in assay [1] (HT29, read-out: IC50); 494 nM in assay [2] (read-out: IC50); 1470 nM in assay [3]; 233 nM in assay [4] (SKOV3, read-out: IC50); 316 nM in the assay on Lox (Melanoma) (read-out: IC50). The VLB/OV3 in assay [3] is given as 6.31.

Turning to `CC(=O)C1CC2=C(C(=O)c3ccccc3C2=O)C(OC2CC(NC(=O)C(F)(F)F)C(NC(=O)C(F)(F)F)C(C)O2)O1` [BCH2104, (1R,3S,1'S) and (1S,3R,1'S)-Methyl-(1-[2',3',4',6'-tetradeoxy-3',4'-bis-trifluoroacetamido-L-arabinohexopyranose]-5,10-dioxo-3,4,5,10-tetrahydronaphthaleno-[2,3-c]pyran-3-yl) ketone], the IC50 in assay [1] (HT29, read-out: IC50) was determined as 171 nM; in assay [2] (read-out: IC50) it was 613 nM; in assay [3] it was 1100 nM; in assay [4] (SKOV3, read-out: IC50) it was 210 nM; with Lox (Melanoma) (read-out: IC50), 240 nM. Also, in assay [3], the VLB/OV3 is 5.05.

`CC(=O)C1CC2=C(C(=O)c3ccccc3C2=O)C(OCC2CCN(C(=O)OC(C)(C)C)CC2)O1.Cl` (racemic) [BCH2068, Methyl-(1-O-[N-BOC-4-piperidinemethanol]-5,10-dioxo-3,4,5,10-tetrahydronaphthaleno-[2,3-c]pyran-3-yl) ketone, racemic, hydrochloride]: the IC50 in assay [1] (HT29, read-out: IC50) stood at 130 nM; in assay [2] (read-out: IC50), 422 nM; in assay [3] it was 1200 nM; in the assay with Lox (Melanoma) (read-out: IC50), 1300 nM. Also, the VLB/OV3 in assay [3] came to 1.

Regarding `COc1cccc2c1C(=O)c1c(O)c3c(c(O)c1C2=O)C[C@@](O)(C(=O)CO)C[C@@H]3O[C@H]1C[C@H](N)[C@H](O)[C@H](C)O1` [Adriamycin, reference compound], the IC50 turned out to be 90 nM in assay [1] (Homo sapiens, HT-29); 70 nM in assay [2] (Homo sapiens); 12 nM in assay [4] (Homo sapiens, SK-OV-3); 34 nM with Lox (Melanoma) (Homo sapiens).
